Experimental data from ChEMBL document CHEMBL5053508, “Optimization of Beclin 1-Targeting Stapled Peptides by Staple Scanning Leads to Enhanced Antiproliferative Potency in Cancer Cells” (J Med Chem, 2021).
Active and inactive are the calls of the source. No cut-off for these calls is given here.

Legend:
SK-BR-3 [1] = experiment: Induction of apoptosis […] in human SK-BR-3 cells assessed as late apoptotic cells at 5 uM incubated for 24 hrs by flow cytometry with Annexin V-FITC/propidium iodide staining based flow cytometry analysis (Rvb= 2.2%); format: functional
HEK-293T [2] = experiment: Cytotoxicity against HEK293T cells assessed as reduction in cell viability at 10 to 20 uM measured after 24 hrs by trypan blue exclusion assay; format: cell-based; conditions: human, dose 10-20 µM
[3] = target: Epidermal growth factor receptor (Homo sapiens) (UniProt P00533); experiment: Induction of endolysosomal trafficking of EGFR in human SK-BR-3 cells assessed as EGF-induced degradation of EGFR at 2 uM measured after 15 hrs post-EGF stimulation by western blot analysis relative to control; format: cell-based
SK-BR-3 [4] = experiment: Induction of apoptosis in human SK-BR-3 cells assessed as increase in cell death at 10 uM in presence of Z-VAD-FMK measured after 24 hrs by trypan blue exclusion assay; format: functional, cell-based
HEK-293T [5] = experiment: Induction of autophagy in human HEK293T cells assessed as increase in LC3-II protein level at 10 to 20 uM in presence of chloroquine measured after 3 hrs by western blot analysis; format: functional, cell-based; conditions: dose 10-20 µM
SK-BR-3 [6] = experiment: Induction of apoptosis in human SK-BR-3 cells assessed as live cells at 10 uM measured after 24 hrs by annexin V-FITC/PI staining based flow cytometry analysis (Rvb= 90.6%); format: functional
HEK-293T [7] = experiment: Induction of autophagy in human HEK293T cells assessed as increase in p62 protein level at 10 to 20 uM measured after 3 hrs by western blot analysis; format: functional, cell-based; conditions: dose 10-20 µM
SK-BR-3 [8] = experiment: Antiproliferative activity against human SK-BR-3 cells assessed as reduction of cell growth measured after 24 hrs by trypan blue exclusion assay; conditions: SK-BR-3, 24 h
SK-BR-3 [9] = experiment: Antiproliferative activity against human SK-BR-3 cells assessed as reduction in cell growth incubated for 5 days by trypan blue exclusion assay; format: functional, cell-based; conditions: time 5.0 day
HEK-293T [10] = experiment: Induction of autophagy in HEK293T cells assessed as increase in LC3-II protein level at 10 to 20 uM incubated for 3 hrs by western blot analysis; format: functional, cell-based; conditions: Homo sapiens, dose 10-20 µM
SK-BR-3 [11] = experiment: Induction of apoptosis in human SK-BR-3 cells assessed as live cells at 5 uM measured after 24 hrs by annexin V-FITC/PI staining based flow cytometry analysis (Rvb= 90.6%); format: functional
SK-BR-3 [12] = experiment: Induction of apoptosis in human SK-BR-3 cells assessed as increase in cleaved caspase-3 level at 10 uM incubated for 24 hrs by western blot analysis; format: functional, cell-based
HEK-293T [13] = experiment: Induction of autophagy in human HEK293T cells assessed as increase in p62 protein level at 10 to 20 uM in presence of chloroquine measured after 3 hrs by western blot analysis; format: functional, cell-based; conditions: dose 10-20 µM
SK-BR-3 [14] = experiment: Induction of apoptosis in human SK-BR-3 cells assessed as dead cells at 10 uM measured after 24 hrs by annexin V-FITC/PI staining based flow cytometry analysis (Rvb= 5.0%); format: functional
SK-BR-3 [15] = experiment: Induction of apoptosis in human SK-BR-3 cells assessed as dead cells at 5 uM measured after 24 hrs by annexin V-FITC/PI staining based flow cytometry analysis (Rvb= 5.0%); format: functional
SK-BR-3 [16] = experiment: Induction of apoptosis in human SK-BR-3 cells assessed as early apoptotic cells at 5 uM measured after 24 hrs by annexin V-FITC/PI staining based flow cytometry analysis (Rvb= 2.2%); format: functional
SK-BR-3 [17] = experiment: Induction of apoptosis in human SK-BR-3 cells assessed as late apoptotic cells at 10 uM incubated for 24 hrs by flow cytometry with Annexin V-FITC/propidium iodide staining based flow cytometry assay (Rvb= 2.2%); format: functional
[18] = target: Receptor tyrosine-protein kinase erbB-2 (Homo sapiens) (UniProt P04626); experiment: Induction of endolysosomal trafficking of HER2 in human SK-BR-3 cells assessed as EGF-induced degradation of HER2 at 2 uM measured after 24 hrs post-EGF stimulation by western blot analysis relative to control; format: cell-based
SK-BR-3 [19] = experiment: Induction of apoptosis in human SK-BR-3 cells assessed as increase in cleaved PARP level at 10 uM incubated for 24 hrs by western blot analysis; format: functional, cell-based
Beclin-1 [20] = target: T1, Beclin-1 (Homo sapiens, UniProt Q14457); experiment: Binding affinity to Beclin 1 coiled coil domain (unknown origin) by isothermal titration calorimetry assay
HEK293T [21] = experiment: Induction of FLAG tagged Beclin 1- Atg14L interaction in HEK293T cells assessed as increase in endogenous beclin 1 pull down at 10 to 20 uM by coimmunoprecipitation assay; format: cell-based; conditions: Homo sapiens, dose 10-20 µM
Beclin-1 [22] = target: T1, Beclin-1; experiment: Inhibition of FLAG-tagged Beclin 1 self-association in HEK293T cells cotransfected with GFP assessed as reduction in beclin 1- GFP pull down by FLAG-beclin 1 by coimmunoprecipitation assay; format: cell-based
HEK293T [23] = experiment: Induction of Beclin 1- FLAG tagged UVRAG interaction in HEK293T cells assessed as endogenous beclin 1 pull down at 10 uM by coimmunoprecipitation assay; format: cell-based; conditions: Homo sapiens
SK-BR-3 [24] = experiment: Induction of apoptosis in human SK-BR-3 cells assessed as early apoptotic cells at 10 uM measured after 24 hrs by annexin V-FITC/PI staining based flow cytometry analysis (Rvb= 2.2%); format: functional
HEK293T [25] = experiment: Induction of FLAG tagged Beclin 1- Atg14L interaction in HEK293T cells assessed as increase in endogenous beclin 1 pull down at 30 uM by coimmunoprecipitation assay; format: cell-based; conditions: Homo sapiens
[26] = target: Receptor tyrosine-protein kinase erbB-2 (Homo sapiens) (UniProt P04626); experiment: Induction of endolysosomal trafficking of HER2 in human SK-BR-3 cells assessed as EGF-induced degradation of HER2 at 2 uM measured after 15 hrs post-EGF stimulation by western blot analysis relative to control; format: cell-based
SK-BR-3 [27] = experiment: Induction of apoptosis in human SK-BR-3 cells assessed as dead cells at 20 uM measured after 24 hrs by annexin V-FITC/PI staining based flow cytometry analysis (Rvb= 5.0%); format: functional
SK-BR-3 [28] = experiment: Induction of apoptosis in human SK-BR-3 cells assessed as early apoptotic cells at 40 uM measured after 24 hrs by annexin V-FITC/PI staining based flow cytometry analysis (Rvb= 2.2%); format: functional
SK-BR-3 [29] = experiment: Induction of apoptosis in human SK-BR-3 cells assessed as live cells at 40 uM measured after 24 hrs by annexin V-FITC/PI staining based flow cytometry analysis (Rvb= 90.6%); format: functional
SK-BR-3 [30] = experiment: Induction of apoptosis in human SK-BR-3 cells assessed as live cells at 20 uM measured after 24 hrs by annexin V-FITC/PI staining based flow cytometry analysis (Rvb= 90.6%); format: functional
SK-BR-3 [31] = experiment: Induction of apoptosis in human SK-BR-3 cells assessed as dead cells at 40 uM measured after 24 hrs by annexin V-FITC/PI staining based flow cytometry analysis (Rvb= 5.0%); format: functional
SK-BR-3 [32] = experiment: Induction of apoptosis in human SK-BR-3 cells assessed as early apoptotic cells at 20 uM measured after 24 hrs by annexin V-FITC/PI staining based flow cytometry analysis (Rvb= 2.2%); format: functional
SK-BR-3 [33] = experiment: Antiproliferative activity against human SK-BR-3 cells assessed as reduction in cell growth at 20 uM incubated for 5 days by trypan blue exclusion assay relative to control; format: functional; set-up: scale not given: the % may be the effect or the level left; conditions: time 5 day
SK-BR-3 [34] = experiment: Induction of apoptosis in human SK-BR-3 cells assessed as late apoptotic cells at 40 uM incubated for 24 hrs by flow cytometry with Annexin V-FITC/propidium iodide staining based flow cytometry assay (Rvb= 2.2%); format: functional
SK-BR-3 [35] = experiment: Induction of apoptosis in human SK-BR-3 cells assessed as late apoptotic cells at 20 uM incubated for 24 hrs by flow cytometry with Annexin V-FITC/propidium iodide staining based flow cytometry assay (Rvb= 2.2%); format: functional
SK-BR-3 [36] = experiment: Induction of apoptosis in human SK-BR-3 cells assessed as early apoptotic cells at 1 uM measured after 24 hrs by annexin V-FITC/PI staining based flow cytometry analysis (Rvb= 2.2%); format: functional
SK-BR-3 [37] = experiment: Induction of apoptosis in human SK-BR-3 cells assessed as dead cells at 1 uM measured after 24 hrs by annexin V-FITC/PI staining based flow cytometry analysis (Rvb= 5.0%); format: functional
SK-BR-3 [38] = experiment: Induction of apoptosis in human SK-BR-3 cells assessed as increase in cell death at 5 uM in presence of Z-VAD-FMK measured after 24 hrs by trypan blue exclusion assay; format: functional, cell-based
SK-BR-3 [39] = experiment: Induction of apoptosis in human SK-BR-3 cells assessed as late apoptotic cells at 1 uM incubated for 24 hrs by flow cytometry with Annexin V-FITC/propidium iodide staining based flow cytometry assay (Rvb= 2.2%); format: functional
SK-BR-3 [40] = experiment: Induction of apoptosis in human SK-BR-3 cells assessed as live cells at 1 uM measured after 24 hrs by annexin V-FITC/PI staining based flow cytometry analysis (Rvb= 90.6%); format: functional

T1 sequence (Q14457 whole entry, the tested form may be a part): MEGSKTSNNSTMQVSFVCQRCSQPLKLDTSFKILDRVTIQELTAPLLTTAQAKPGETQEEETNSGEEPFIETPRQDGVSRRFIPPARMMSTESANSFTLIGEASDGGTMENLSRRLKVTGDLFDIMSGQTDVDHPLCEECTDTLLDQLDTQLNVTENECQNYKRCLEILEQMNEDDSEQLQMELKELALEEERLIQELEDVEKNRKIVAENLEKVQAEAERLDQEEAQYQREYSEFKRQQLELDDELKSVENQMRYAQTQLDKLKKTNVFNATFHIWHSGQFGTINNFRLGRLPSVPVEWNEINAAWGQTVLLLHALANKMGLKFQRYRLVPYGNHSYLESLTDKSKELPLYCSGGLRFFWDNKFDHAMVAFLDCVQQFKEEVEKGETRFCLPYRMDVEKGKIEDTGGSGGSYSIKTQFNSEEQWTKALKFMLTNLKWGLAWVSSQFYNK
Chain of Receptor tyrosine-protein kinase erbB-2 (Homo sapiens) (P04626 whole entry): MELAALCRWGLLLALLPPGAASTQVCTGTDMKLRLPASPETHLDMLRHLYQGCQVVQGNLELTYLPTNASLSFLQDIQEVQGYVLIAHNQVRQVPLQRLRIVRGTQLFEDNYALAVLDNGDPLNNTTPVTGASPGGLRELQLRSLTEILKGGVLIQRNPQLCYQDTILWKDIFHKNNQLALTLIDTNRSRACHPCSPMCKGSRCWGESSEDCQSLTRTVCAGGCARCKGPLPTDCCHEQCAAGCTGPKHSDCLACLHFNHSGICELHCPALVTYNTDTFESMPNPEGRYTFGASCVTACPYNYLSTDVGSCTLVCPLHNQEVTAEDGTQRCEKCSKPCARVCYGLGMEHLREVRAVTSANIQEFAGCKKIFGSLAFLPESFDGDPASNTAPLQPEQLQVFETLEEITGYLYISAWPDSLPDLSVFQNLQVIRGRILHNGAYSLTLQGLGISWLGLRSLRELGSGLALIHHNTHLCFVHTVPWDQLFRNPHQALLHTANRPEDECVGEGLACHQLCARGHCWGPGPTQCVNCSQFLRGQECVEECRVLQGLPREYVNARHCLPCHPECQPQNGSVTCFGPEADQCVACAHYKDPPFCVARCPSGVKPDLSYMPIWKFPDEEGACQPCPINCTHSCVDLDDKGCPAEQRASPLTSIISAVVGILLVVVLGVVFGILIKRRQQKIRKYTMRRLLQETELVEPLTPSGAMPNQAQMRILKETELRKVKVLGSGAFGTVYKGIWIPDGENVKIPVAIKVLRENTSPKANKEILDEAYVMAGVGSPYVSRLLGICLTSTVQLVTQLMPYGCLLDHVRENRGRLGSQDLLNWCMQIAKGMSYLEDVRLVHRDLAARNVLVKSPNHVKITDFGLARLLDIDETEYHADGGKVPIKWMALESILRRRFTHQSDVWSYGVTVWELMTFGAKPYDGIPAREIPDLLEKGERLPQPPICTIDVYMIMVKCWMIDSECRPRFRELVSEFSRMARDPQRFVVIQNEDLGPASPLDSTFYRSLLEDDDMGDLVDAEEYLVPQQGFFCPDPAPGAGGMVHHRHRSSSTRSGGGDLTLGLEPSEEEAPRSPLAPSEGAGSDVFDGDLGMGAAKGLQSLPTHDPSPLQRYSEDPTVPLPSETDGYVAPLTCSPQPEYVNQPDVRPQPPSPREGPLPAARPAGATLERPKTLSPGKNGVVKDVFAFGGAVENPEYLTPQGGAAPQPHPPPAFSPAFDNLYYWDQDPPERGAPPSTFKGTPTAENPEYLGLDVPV
Chain of Epidermal growth factor receptor (Homo sapiens) (P00533 whole entry): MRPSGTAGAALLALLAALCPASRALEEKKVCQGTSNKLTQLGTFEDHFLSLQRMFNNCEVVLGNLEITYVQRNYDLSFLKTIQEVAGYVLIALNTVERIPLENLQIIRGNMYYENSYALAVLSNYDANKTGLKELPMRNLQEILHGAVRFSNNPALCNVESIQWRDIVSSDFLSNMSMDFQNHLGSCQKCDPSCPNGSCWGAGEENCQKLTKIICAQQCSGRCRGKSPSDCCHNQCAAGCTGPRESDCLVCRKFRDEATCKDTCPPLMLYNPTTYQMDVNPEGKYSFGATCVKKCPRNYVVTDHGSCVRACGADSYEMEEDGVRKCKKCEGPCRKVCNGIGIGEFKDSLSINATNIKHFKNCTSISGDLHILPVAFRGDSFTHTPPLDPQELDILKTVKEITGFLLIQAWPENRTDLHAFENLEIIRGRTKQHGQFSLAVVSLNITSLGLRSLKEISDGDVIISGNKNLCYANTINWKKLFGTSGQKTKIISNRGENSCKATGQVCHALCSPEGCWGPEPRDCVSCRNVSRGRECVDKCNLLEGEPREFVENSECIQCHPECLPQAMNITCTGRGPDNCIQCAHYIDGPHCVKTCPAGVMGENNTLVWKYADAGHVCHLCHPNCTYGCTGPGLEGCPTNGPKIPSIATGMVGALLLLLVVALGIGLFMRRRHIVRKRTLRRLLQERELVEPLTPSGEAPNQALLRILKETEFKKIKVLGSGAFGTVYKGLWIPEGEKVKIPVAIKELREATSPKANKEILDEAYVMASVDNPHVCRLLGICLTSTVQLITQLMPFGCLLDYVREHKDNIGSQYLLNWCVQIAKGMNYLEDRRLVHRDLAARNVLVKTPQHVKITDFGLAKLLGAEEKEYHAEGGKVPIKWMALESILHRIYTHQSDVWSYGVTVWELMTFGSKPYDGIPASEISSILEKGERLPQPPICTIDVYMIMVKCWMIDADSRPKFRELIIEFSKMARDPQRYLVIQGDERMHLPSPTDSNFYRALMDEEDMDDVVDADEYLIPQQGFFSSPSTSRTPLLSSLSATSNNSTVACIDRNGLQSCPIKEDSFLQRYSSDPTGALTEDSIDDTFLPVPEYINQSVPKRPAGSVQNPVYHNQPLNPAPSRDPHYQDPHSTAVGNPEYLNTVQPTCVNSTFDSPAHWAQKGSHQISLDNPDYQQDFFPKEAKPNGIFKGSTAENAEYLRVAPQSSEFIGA

SMILES: CC[C@H](C)[C@@H]1NC(=O)[C@H](C(C)C)NC(=O)[C@H](CC(=O)O)NC(=O)[C@H](C(C)C)NC(=O)[C@H](CC(C)C)NC(=O)[C@H](NC(=O)[C@H](CC(N)=O)NC(=O)[C@H](Cc2ccccc2)NC(=O)[C@H](CC(C)C)NC(=O)[C@@H](NC(=O)[C@H](CCCNC(=N)N)NC(=O)[C@H](CCCNC(=N)N)NC(=O)[C@H](CCCNC(=N)N)NC(=O)[C@H](CCC(N)=O)NC(=O)[C@H](CCCNC(=N)N)NC(=O)[C@H](CCCNC(=N)N)NC(=O)[C@H](CCCCN)NC(=O)[C@H](CCCCN)NC(=O)[C@H](CCCNC(=N)N)NC(=O)CNC(=O)[C@H](Cc2ccc(O)cc2)NC(C)=O)C(C)C)CCCCCC/C=C/CCC[C@@H](C(=O)N[C@@H](CCCNC(=N)N)C(=O)N[C@@H](CCCCN)C(=O)N[C@H](C(N)=O)C(C)C)NC(=O)[C@H](CCCCN)NC1=O
- Activity (SK-BR-3 [1]): 13.3%
- Activity (HEK-293T [2]): Non-Toxic
- Activity [3]: 60%
- Activity (SK-BR-3 [4]): Active
- Activity (HEK-293T [5]): Active
- Activity (SK-BR-3 [6]): 69%
- Activity (HEK-293T [7]): inactive
- IC50 (SK-BR-3 [8]): 7.12 µM
- Activity (SK-BR-3 [9]): Dose-dependent effect
- Activity (HEK-293T [10]): Active
- Activity (SK-BR-3 [11]): 81.1%
- Activity (SK-BR-3 [12]): inactive
- Activity (HEK-293T [13]): inactive
- Activity (SK-BR-3 [14]): 1.2%
- Activity (SK-BR-3 [15]): 0.6%
- Activity (SK-BR-3 [16]): 2%
- Activity (SK-BR-3 [17]): 29.5%
- Activity [18]: 70%
- Activity (SK-BR-3 [19]): inactive
- Kd (Beclin-1 [20]): 0.33 µM
- Activity (HEK293T [21]): inactive
- inhibition (Beclin-1 [22]): Dose-dependent effect
- Activity (HEK293T [23]): Active
- Activity (SK-BR-3 [24]): 0.3%
- Activity (HEK293T [25]): Active
- Activity [26]: 50%

SMILES: CC[C@H](C)[C@H](NC(=O)[C@H](CC(C)C)NC(=O)[C@H](CCCNC(=N)N)NC(=O)[C@H](CCCNC(=N)N)NC(=O)[C@H](CCCNC(=N)N)NC(=O)[C@H](CCCNC(=N)N)NC(=O)[C@H](CCC(N)=O)NC(=O)[C@H](CCCNC(=N)N)NC(=O)[C@H](CCCNC(=N)N)NC(=O)[C@H](CCCCN)NC(=O)[C@H](CCCCN)NC(=O)[C@H](CCCNC(=N)N)NC(=O)CNC(=O)[C@H](Cc1ccc(O)cc1)NC(C)=O)C(=O)N[C@@H](CO)C(=O)N[C@@H](CCC(=O)O)C(=O)N[C@@H](CC(C)C)C(=O)N[C@@H]1CCCCCC/C=C/CCC[C@@H](C(=O)N[C@@H](C)C(N)=O)NC(=O)[C@H](CCCNC(=N)N)NC(=O)[C@H](CCC(N)=O)NC(=O)[C@H](CCCCN)NC(=O)[C@H](CCC(=O)O)NC(=O)[C@H](CCCNC(=N)N)NC(=O)[C@H](CC(=O)O)NC1=O
- Activity (SK-BR-3 [27]): 3.5%
- Activity (SK-BR-3 [1]): 8.2%
- Activity (SK-BR-3 [28]): 0.8%
- Activity (SK-BR-3 [29]): 76.1%
- Activity (SK-BR-3 [6]): 90.6%
- Activity (SK-BR-3 [11]): 91%
- Activity (SK-BR-3 [30]): 89%
- Activity (SK-BR-3 [31]): 1.5%
- Activity (SK-BR-3 [32]): 1.1%
- Activity (SK-BR-3 [14]): 0.8%
- Activity (SK-BR-3 [33]): 30%
- Activity (SK-BR-3 [15]): 0.4%
- Activity (SK-BR-3 [16]): 0.2%
- Activity (SK-BR-3 [17]): 8.1%
- Activity (SK-BR-3 [34]): 21.6%
- Activity (SK-BR-3 [24]): 0.2%
- Activity (SK-BR-3 [35]): 6.1%

SMILES: COc1cccc2c1C(=O)c1c(O)c3c(c(O)c1C2=O)C[C@@](O)(C(=O)CO)C[C@@H]3O[C@H]1C[C@H](N)[C@H](O)[C@H](C)O1 [DOXORUBICIN]
- Activity (SK-BR-3 [36]): 16.5%
- Activity (SK-BR-3 [37]): 16.7%
- Activity (SK-BR-3 [38]): inactive
- Activity (SK-BR-3 [39]): 18.7%
- Activity (SK-BR-3 [40]): 48.1%
